Molecular target: T1, human GABA A receptor α5β3γ2 (hα5) (Homo sapiens, UniProt P18507+P31644)
T1 construct: expressed in transfected cells; host or cells: HEK293 (transient transfection); membranes prepared from cell pellets
Experiment: [3H]flumazenil competition binding, human GABA A α5β3γ2 receptors in HEK293 cells
Conditions: displacement of [3H]flumazenil 0.5 nM; HEK293 cells transiently transfected with human receptors; mean of two determinations
Procedure: Membrane Preparation and Binding Assay
The affinity of compounds at GABA A receptor subtypes was measured by competition for [3H]flumazenil (85 Ci/mmol; Roche) binding to HEK293 cells expressing rat (stably transfected) or human (transiently transfected) receptors of composition α1β3γ2, α2β3γ2, α3β3γ2 and α5β3γ2.
Cell pellets were suspended in Krebs-tris buffer (4.8 mM KCl, 1.2 mM CaCl2, 1.2 mM MgCl2, 120 mM NaCl, 15 mM Tris; pH 7.5; binding assay buffer), homogenized by polytron for ca. 20 sec on ice and centrifuged for 60 min at 4° C. (50000 g; Sorvall, rotor: SM24=20000 rpm). The cell pellets were resuspended in Krebs-tris buffer and homogenized by polytron for ca. 15 sec on ice. Protein was measured (Bradford method, Bio-Rad) and aliquots of 1 mL were prepared and stored at −80° C.
Radioligand binding assays were carried out in a volume of […] (96-well plates) which contained […] of cell membranes, [3H]flumazenil at a concentration of 1 nM for α1, α2, α3 subunits and 0.5 nM for α5 subunits and the test compound in the range of […]. Nonspecific binding was defined by 10^−5 M diazepam and typically represented less than 5% of the total binding. […] After drying, filter-retained radioactivity was detected by liquid scintillation counting. Ki values were calculated using Excel-Fit (Microsoft) and are the means of two determinations. […]

**Q.** Which Ki does the source give for `Cc1onc(-c2ccccc2)c1-c1ncc2ccccn12` [Example 1, 3-(5-Methyl-3-phenyl-isoxazol-4-yl)-imidazo[1,5-a]pyridine] here?
**A.** Its Ki is 77.9 nM.

From US7399769B2, “Aryl-isoxazol-4-yl-imidazo[1,5-a]pyridine derivatives” (Hoffmann-La Roche Inc., priority 2005, dated 2008)
